Assay results published in patent US20240124483A1, “Methods for the Treatment of Fibrotic Disease” (SHY Therapeutics, LLC, priority 2021, published 2024).
Read-outs that look alike come from different tables or passages of the source.

Assays:
JNK = JNK Activation Assay in Panc-1 (western blot); format: cell-based, Human; set-up: key: Y = yes; N = No; conditions: at 10 μM
Procedure, shortened: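 Cells were serum-starved overnight in 0.5% FBS, then given compound (10 μM single dose or serial dilutions, 0.3% DMSO) for 3 h at 37 °C. TGF-b1 at 10 ng/ml followed, 1 h for Panc-1 and 20 min for C2C12. Phospho-JNK (Thr183/Tyr185) was read by western blot of lysates.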

MAPK p38 = MAPK p38 Activation Assay in Panc-1 (western blot); format: cell-based, Human; set-up: key: Y = yes; N = No; conditions: at 10 μM
Procedure, shortened: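 Cells serum-starved overnight in 0.5% FBS, then compound 3 h at 37° C (10 μM or serial dilutions for IC50; 0.3% DMSO). TGF-b1 10 ng/ml stimulation followed: 1 h for Panc-1, 20 min for C2C12. Phospho-p38 (Thr180/Tyr182) measured by western blot of lysates.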

Rho-A = Rho-A (Homo sapiens (Human), UniProt P61586); experiment: Ras GTP Binding Domain Inhibition Assay, Rho-A
Chain of Rho-A (P61586 whole entry, species assumed, the tested form may be a part): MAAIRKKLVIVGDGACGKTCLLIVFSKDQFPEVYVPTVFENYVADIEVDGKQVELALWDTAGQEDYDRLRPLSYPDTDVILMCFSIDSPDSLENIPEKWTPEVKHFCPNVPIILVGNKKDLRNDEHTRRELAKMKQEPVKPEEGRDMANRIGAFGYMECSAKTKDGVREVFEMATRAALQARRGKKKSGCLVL
Procedure, shortened: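 His-tagged GTPase immobilized on nickel-coated plates (10-30 μg/mL, overnight, 4° C), then exposed to compound (20 μM or serial dilution for IC50, 1% DMSO) for 3 h at room temperature, with or without His-tagged Sos (residues 556-1049) in the final hour. Bound Cy3-GTP or Cy5-GTP (100 nM, 45 min) was read by fluorescence after washing.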

[1] = without SOS, read-out: Rho-A: % inh.
[2] = + SOS, read-out: Rho-A + SOS: % inh.

| Structure (SMILES) | Activation of JNK in PANC-1 (JNK) | Activation of MAPK p38 in PANC-1 (MAPK p38) | inhibition at 20 µM (Rho-A; [1]) | inhibition at 20 µM (Rho-A; [2]) |
| --- | --- | --- | --- | --- |
| CO[C@H]1CNC[C@@H](Nc2nc(-c3nccn3C)nc3sc(-c4ccn(C(C)C)n4)cc23)C1 [Compound 28, 6-(1-Isopropyl-1H-pyrazol-3-yl)-N-((3S,5R)-5-methoxypiperidin-3-yl)-2-(1-methyl-1H-imidazol-2-yl)thieno[2,3-d]pyrimidin-4-amine] | Y | Y | 46 to 75% | – |
| COCCN(C)c1nc(-c2nccn2C)nc2sc(-c3ccccc3)c(-c3ccccc3)c12 [Compound 2, N-(2-Methoxyethyl)-N-methyl-2-(1-methyl-1H-imidazol-2-yl)-5,6-diphenylthieno[2,3-d]pyrimidin-4-amine] | Y | Y | 26 to 45% | – |
| COCCn1ccnc1-c1nc(N[C@H]2C[C@@H](OC)C2)c2c(-c3ccccc3)c(-c3ccn(C)n3)sc2n1 [Compound 13, N-((1s,3s)-3-methoxycyclobutyl)-2-(1-(2-methoxyethyl)-1H-imidazol-2-yl)-6-(1-methyl-1H-pyrazol-3-yl)-5-phenylthieno[2,3-d]pyrimidin-4-amine] | Y | N | 76 to 100% | 76 to 100% |
| Cc1c(-c2ccn(C(C)C)n2)sc2nc(-c3nccn3C)nc(NCC3CN(C)CCO3)c12 (racemic) [Compound 25, rac-6-(1-Isopropyl-1H-pyrazol-3-yl)-5-methyl-2-(1-methyl-1H-imidazol-2-yl)-N-((4-methylmorpholin-2-yl)methyl)thieno[2,3-d]pyrimidin-4-amine] | Y | Y | 76 to 100% | – |
| CO[C@H]1CC[C@@H](Nc2nc(-c3nccn3C)nc3sc(-c4ccn(C)n4)c(-c4ccccc4)c23)C1 (racemic) [Compound 5, rac-N-((1R,3S)-3-Methoxycyclopentyl)-2-(1-methyl-1H-imidazol-2-yl)-6-(1-methyl-1H-pyrazol-3-yl)-5-phenylthieno[2,3-d]pyrimidin-4-amine] | Y | Y | 46 to 75% | 76 to 100% |
